From patent publication US8580321B2, “Method for reducing the effects of chemotherapy using flagellin related polypeptides” (priority 2003, dated 2013)

Key:
[1] = tested on: mice; settings: known from literature; cited from earlier work
[2] = tested on: vascular endothelial cells of villi; experiment: TUNEL assay of apoptosis in intestinal tissue after irradiation; assay type: in vivo, mouse; settings: 5 hours post irradiation, pretreated mice
Excerpt: In addition to purely histological observation of cell death and survival, we performed more specialized tests of apoptotic cell death in intestinal tissue using a TUNEL assay, which detects apoptosis-associated DNA fragmentation. These experiments allowed us to define with a high degree of probability cellular populations that are depleted by radiation and rescued by flagellin fragment treatment. The earliest radiation-induced alterations detectable in the small intestine after treatment with IR is apoptosis occurring in vascular endothelial cells of villi, which is seen as early as 5 hours post treatment (FIG. 17B). […] Effective protection of endothelial cells of the small intestine by the flagellin fragment may be due to expression of TLR5 in these cells.

[3] = Blood urea (QuantiChrom Urea Assay Kit) as renal toxicity of cisplatinum; settings: 0.04 mg/kg s.c., Day 4 post-treatment, n=3
Excerpt: Urea was detected in mouse blood serum at Day 4 post-treatment using a QuantiChrom Urea Assay Kit (BioAssay Systems).

[4] = tested on: NIH3T3-derived sarcoma and B16 melanoma tumors; experiment: Tumor sensitivity to radiation treatment in syngeneic mouse tumor models; assay type: in vivo
Procedure: Left Panel: NIH3T3-derived sarcoma cells were injected s.c. in NIH-Swiss mice. When tumors reached 7-10 mm in diameter, mice received three 4.3 Gy doses of total body irradiation, with or without pretreatment with AA′. […] U/t: untreated; AA′: AA′ with no irradiation; 3×4Gy: irradiation only; 3×4Gy+AA′: AA′ and irradiation. (The shape of curves reflects slow growth of tumors that is a characteristic of this model). […] Right Panel: The experiment was done in the same way with another syngeneic mouse tumor model: B16 melanoma (C57BL6 background). Treatment was applied when tumors reached 4-5 mm in diameter and involved three subsequent 4 Gy doses of total body gamma radiation applied with or without pretreatment with AA′ (30 min. before irradiation, 5 μg/mouse).
The ultimate test of a potential radioprotective agent in cancer treatment is tumor selectivity, its ability to protect normal tissues while providing no or little protection to the tumor. We injected 10 NIH-Swiss mice subcutaneously, in both flanks (20 tumors total), with 2×10^6 cells of syngeneic sarcoma cell line model (NIH3T3-derived and spontaneously transformed sarcoma with p53 inactivated by dominant negative inhibitor GSE56). When tumors reached the size of 5-7 mm in diameter (day 5), the mice were injected subcutaneously with 0.2 mg/kg of AA′ or saline vehicle and irradiated 1 hours later with […] of total-body y-irradiation (3×4.3 Gy=12.9 Gy total dose). Injections and irradiations were done at days 5, 6 and 7.

[5] = tested on: small intestinal crypts; experiment: BrdU incorporation in small intestinal crypts; assay type: in vivo, mouse
Excerpt: Besides a direct inhibition of apoptosis, temporary halt of proliferation followed by repair may be an alternative mechanism of radioprotection, and has been described for other radioprotectors such as TGF-β3 (Booth D., et. al., Int J Cancer. 2000 Apr. 1; 86(1):53-9). Accordingly, we decided to examine the possible influence of CBLB502 (AA′) on the proliferative activity of the cells in small intestine (with and without irradiation) during the first hours after its administration (FIG. 32). CBLB502 or PBS was injected i.p. in mice, followed after 30 min by 15 Gy irradiation (if used). 2 hr after injection (1.5 hr after irradiation if it was applied), BrdU was injected intraperitoneally. Samples of small intestine were obtained after additional 1.5 hours.
We next determined the duration of the CBLB502-induced growth arrest in small intestine. CBLB502 or PBS was injected i.p. in mice, BrdU was injected 1 or 4 hours later and samples of small intestine were obtained after additional 1.5 hours from several mice (samples from three mice are shown) (FIG. 33).

Substance | highest tolerable dose [1] [μg/mouse] | apoptosis in vascular endothelial cells of villi [2] | mean OD 490 (blood urea), CLBL502 alone [3] | mice cured and surviving radiotherapy plus AA′ ([4]; 3×4.3 Gy with AA′, irradiated-only mice all died by day 18) [%] | tumor growth in unirradiated mice ([4]; AA′ without irradiation) | radiation-induced shrinkage of tumors ([4]; s.c. 0.2 mg/kg 1 hour before each of 3 irradiations, sarcoma in NIH-Swiss mice) | effect on radiosensitivity of tumors ([4]; sarcoma and B16 melanoma) | incorporation of BrdU in intestine, BrdU after 1 hour ([5]; BrdU injected 1 hour after CBLB502) | incorporation/DNA synthesis, BrdU after 4 hr ([5]; BrdU injected 4 hr after CBLB502) | level of BrdU incorporation, irradiated mice ([5]; i.p. 30 min before 15 Gy, NIH-Swiss mice) | DNA synthesis (BrdU incorporation) in crypts, no irradiation ([5]; i.p., BrdU 2 hr after injection, NIH-Swiss mice)
flagellin: Salmonella dublin FliC flagellin, 505 amino acids, SEQ ID NO: 1; recombinant full-length protein | 300 | – | – | – | – | – | – | – | – | – | –
AA′: flagellin fragment (1-177)-Linker-(402-505), SEQ ID NO: 8 | – | almost completely blocked | less than 0.50 | 100 | decrease in the growth rate of tumors | enhanced | no effect | reduced as compared to control | even higher than in control | strongly reduced | nearly undetectable
